Numbers after ± are expanded uncertainties.

This data set in a line: activity coefficient (dimensionless); of the first substance listed, at infinite dilution; xn = mol fraction of the nth substance listed. Conditions: Liquid, Chromatography, x1 = 0.

Regarding `Cc1ccccc1C` [1,2-dimethylbenzene] + C[n+]1ccn(CCO)c1.F[B-](F)(F)F, the activity coefficient (303.15 K) is 28.9 ± 3; the activity coefficient (313.15 K) came to 28.2 ± 3; the activity coefficient (323.15 K) came to 27.7 ± 2.9; the activity coefficient (333.15 K) was determined as 27 ± 2.8; the activity coefficient (343.15 K) is 26.5 ± 2.8; the activity coefficient (353.15 K) was 25.9 ± 2.7. The activity coefficient (363.15 K) stood at 25.4 ± 2.7.
With `Cc1cccc(C)c1` [1,3-dimethylbenzene] + C[n+]1ccn(CCO)c1.F[B-](F)(F)F, the activity coefficient runs as follows: (303.15 K) 37.2 ± 3.9; (313.15 K) 36.3 ± 3.8; (323.15 K) 35.5 ± 3.7; (333.15 K) 34.7 ± 3.7; (343.15 K) 34 ± 3.6; (353.15 K) 33.2 ± 3.5. Besides, under “363.15 K”, the activity coefficient was 32.5 ± 3.4.
For `Cc1ccc(C)cc1` [1,4-dimethylbenzene] + C[n+]1ccn(CCO)c1.F[B-](F)(F)F, the activity coefficient reads like this: (303.15 K) 35.4 ± 3.7; (313.15 K) 34.7 ± 3.6; (323.15 K) 33.9 ± 3.6; (333.15 K) 33.2 ± 3.5; (343.15 K) 32.5 ± 3.4; (353.15 K) 32 ± 3.4. The activity coefficient (363.15 K) was determined as 31.4 ± 3.3.
In the case of `CC(C)CC(C)(C)C` [2,2,4-trimethylpentane] + C[n+]1ccn(CCO)c1.F[B-](F)(F)F, the activity coefficient runs as follows: (303.15 K) 412 ± 44; (313.15 K) 523 ± 55; (323.15 K) 731 ± 77; (333.15 K) 962 ± 100; (343.15 K) 1300 ± 140; (353.15 K) 1700 ± 180. For the same molecule, for the setting “363.15 K”, the activity coefficient turned out to be 2310 ± 240.
In the case of `c1ccccc1` [benzene] + C[n+]1ccn(CCO)c1.F[B-](F)(F)F, the activity coefficient reads like this: (303.15 K) 9.13 ± 0.96; (313.15 K) 9.11 ± 0.96; (323.15 K) 9.1 ± 0.96; (333.15 K) 9.08 ± 0.95; (343.15 K) 9.06 ± 0.95; (353.15 K) 9.05 ± 0.95. Moreover, under “363.15 K”, the activity coefficient was 9.04 ± 0.95.
`C1CCCCC1` [cyclohexane] + C[n+]1ccn(CCO)c1.F[B-](F)(F)F: the activity coefficient (303.15 K) came to 339 ± 36; the activity coefficient (313.15 K) amounted to 418 ± 44; the activity coefficient (323.15 K) worked out at 488 ± 52; the activity coefficient (333.15 K) was determined as 593 ± 63; the activity coefficient (343.15 K) was found to be 689 ± 73; the activity coefficient (353.15 K) worked out at 803 ± 85. The activity coefficient (363.15 K) came to 934 ± 99.
For the molecule `C1=CCCCC1` [cyclohexene] + C[n+]1ccn(CCO)c1.F[B-](F)(F)F, the activity coefficient worked out at 123 ± 13 (303.15 K); 118 ± 12 (313.15 K); 114 ± 12 (323.15 K); 110 ± 12 (333.15 K); 106 ± 11 (343.15 K); 103 ± 11 (353.15 K). In addition, the activity coefficient (363.15 K) was 100 ± 11.
Consider `CCc1ccccc1` [ethylbenzene] + C[n+]1ccn(CCO)c1.F[B-](F)(F)F, for which the activity coefficient is 42.1 ± 4.4 (303.15 K); 40.6 ± 4.3 (313.15 K); 39 ± 4.1 (323.15 K); 37.9 ± 4 (333.15 K); 36.7 ± 3.9 (343.15 K); 35.9 ± 3.8 (353.15 K). The activity coefficient (363.15 K) is 35 ± 3.7.
Turning to `CCCCCCC` [heptane] + C[n+]1ccn(CCO)c1.F[B-](F)(F)F, the activity coefficient stood at 620 ± 65 (303.15 K); 850 ± 90 (313.15 K); 1200 ± 130 (323.15 K); 1610 ± 170 (333.15 K); 2190 ± 230 (343.15 K); 2980 ± 310 (353.15 K). Besides, the activity coefficient (363.15 K) was found to be 4220 ± 450.
For the molecule `CC1CCCCC1` [methylcyclohexane] + C[n+]1ccn(CCO)c1.F[B-](F)(F)F, the activity coefficient reads like this: (303.15 K) 328 ± 35; (313.15 K) 373 ± 39; (323.15 K) 421 ± 44; (333.15 K) 486 ± 51; (343.15 K) 546 ± 58; (353.15 K) 611 ± 64. Moreover, the activity coefficient (363.15 K) was found to be 677 ± 71.
Consider `CCCCCCCCC` [nonane] + C[n+]1ccn(CCO)c1.F[B-](F)(F)F, for which the activity coefficient amounted to 546 ± 58 (303.15 K); 564 ± 60 (313.15 K); 582 ± 61 (323.15 K); 599 ± 63 (333.15 K); 616 ± 65 (343.15 K); 633 ± 67 (353.15 K). Besides, where the note is “363.15 K”, the activity coefficient worked out at 651 ± 69.
Consider `CCCCCCCC` [octane] + C[n+]1ccn(CCO)c1.F[B-](F)(F)F, for which the activity coefficient by setting is: (303.15 K) 498 ± 52; (313.15 K) 532 ± 56; (323.15 K) 574 ± 61; (333.15 K) 615 ± 65; (343.15 K) 659 ± 70; (353.15 K) 709 ± 75. Further, where the note is “363.15 K”, the activity coefficient is 760 ± 80.
As to `C=Cc1ccccc1` [styrene] + C[n+]1ccn(CCO)c1.F[B-](F)(F)F, the activity coefficient reads like this: (303.15 K) 15.3 ± 1.6; (313.15 K) 15.1 ± 1.6; (323.15 K) 14.8 ± 1.6; (333.15 K) 14.6 ± 1.5; (343.15 K) 14.4 ± 1.5; (353.15 K) 14.2 ± 1.5. The activity coefficient (363.15 K) is 14 ± 1.5.
Turning to `Cc1ccccc1` [toluene] + C[n+]1ccn(CCO)c1.F[B-](F)(F)F, the activity coefficient came out at 18.3 ± 1.9 (303.15 K); 18 ± 1.9 (313.15 K); 17.7 ± 1.9 (323.15 K); 17.5 ± 1.8 (333.15 K); 17.3 ± 1.8 (343.15 K); 17.2 ± 1.8 (353.15 K). In addition, the activity coefficient (363.15 K) stood at 16.9 ± 1.8.

The values are drawn from the NIST ThermoML archive (doi:10.1021/je9002724).
